According to ChEMBL document CHEMBL1158229, “Two new lignans, interiotherins A and B, as anti-HIV principles from Kadsura interior” (J Nat Prod, 1996):

What was measured:
H9 = experiment: Cytotoxicity against mock-infected human H9 cells after 4 days; format: cell-based; details: h9, 96 h
[1] = Therapeutic index, ratio of IC50 for mock-infected human H9 cells to EC50 for HIV1 3B; format: cell-based; details: for Activity: h9; for selectivity ratio: read-out: TI

Row | Compound | Activity (H9) | Activity [1] | selectivity ratio [1]
1 | C/C=C(/C)C(=O)O[C@H]1c2cc3c(c(OC)c2-c2c(cc4c(c2OC)OCO4)C[C@H](C)[C@@H]1C)OCO3 [ANGELOYLGOMISIN R] | Not Active | Active | –
2 | COc1c2c(cc3c1-c1c(cc4c(c1OC)OCO4)[C@H](OC(=O)c1ccccc1)[C@@H](C)[C@@H](C)C3)OCO2 [INTERIOTHERIN A] | – | – | 13.2
3 | C/C=C(/C)C(=O)O[C@H]1c2cc3c(c(OC)c2-c2c(cc4c(c2OC)OCO4)C[C@H](C)[C@]1(C)O)OCO3 [INTERIOTHERIN B] | Not Active | Active | –
4 | COc1c2c(cc3c1-c1c(cc4c(c1OC)OCO4)[C@H](OC(=O)c1ccccc1)[C@@](C)(O)[C@@H](C)C3)OCO2 [SCHISANTHERIN D] | – | – | 50.6
5 | Cc1cn([C@H]2C[C@H](N=[N+]=[N-])[C@@H](CO)O2)c(=O)[nH]c1=O [ZIDOVUDINE] | – | – | 250000
